Reference: ChEMBL document CHEMBL1909046, “DrugMatrix in vitro pharmacology data”

Test system: not listed separately
Experiment: DRUGMATRIX: Interleukin IL-1 radioligand binding (ligand: [125I] interleukin 1beta)
Type: cell membranes, Membrane
Conditions: nih3t3; Not Active = under 50% inhibition at 10 µM

Compound	IC50	Ki
Oc1ccc(OCc2ccccc2)cc1 [MONOBENZONE]	Not Active	Not Active
CC(C)(Oc1ccc(C2CCCc3ccccc32)cc1)C(=O)O (stereo unspecified) [NAFENOPIN]	Not Active	Not Active
CC(C)[C@H]1CC[C@H](C(=O)N[C@H](Cc2ccccc2)C(=O)O)CC1 [NATEGLINIDE]	Not Active	Not Active
CCN[C@@H]1C[C@H](N)[C@@H](O[C@H]2OC(CN)=CC[C@H]2N)[C@H](O)[C@H]1O[C@H]1OC[C@](C)(O)[C@H](NC)[C@H]1O [NETILMICIN]	Not Active	Not Active
COC(=O)C1=C(C)NC(C)=C(C(=O)OCC(C)C)C1c1ccccc1[N+](=O)[O-] (stereo unspecified) [NISOLDIPINE]	Not Active	Not Active
CCOC(=O)C1=C(C)NC(C)=C(C(=O)OC)C1c1cccc([N+](=O)[O-])c1 (stereo unspecified) [NITRENDIPINE]	Not Active	Not Active
C#C[C@]1(OC(C)=O)CC[C@H]2[C@@H]3CCC4=CC(=O)CC[C@@H]4[C@H]3CC[C@@]21C [NORETHINDRONE ACETATE]	Not Active	Not Active
COc1ccc2[nH]c([S+]([O-])Cc3ncc(C)c(OC)c3C)nc2c1 (stereo unspecified) [OMEPRAZOLE]	Not Active	Not Active
Cc1nccn1CC1CCc2c(c3ccccc3n2C)C1=O (stereo unspecified) [ONDANSETRON]	Not Active	Not Active

Biological target: Protein phosphatase 3 catalytic subunit alpha (Homo sapiens, UniProt Q08209);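 also: inhibition of calcineurin (PP2B) enzyme activity, measured with DiFMUP as the substrate; in other assays of this panel Not Active means under 50% inhibition at 10 µM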
Design: species or system Escherichia coli
Conditions: not given

Compound	IC50
Oc1ccc(OCc2ccccc2)cc1 [MONOBENZONE]	Not Active
CC(C)(Oc1ccc(C2CCCc3ccccc32)cc1)C(=O)O (stereo unspecified) [NAFENOPIN]	Not Active
CC(C)[C@H]1CC[C@H](C(=O)N[C@H](Cc2ccccc2)C(=O)O)CC1 [NATEGLINIDE]	Not Active
CCN[C@@H]1C[C@H](N)[C@@H](O[C@H]2OC(CN)=CC[C@H]2N)[C@H](O)[C@H]1O[C@H]1OC[C@](C)(O)[C@H](NC)[C@H]1O [NETILMICIN]	Not Active
COC(=O)C1=C(C)NC(C)=C(C(=O)OCC(C)C)C1c1ccccc1[N+](=O)[O-] (stereo unspecified) [NISOLDIPINE]	Not Active
CCOC(=O)C1=C(C)NC(C)=C(C(=O)OC)C1c1cccc([N+](=O)[O-])c1 (stereo unspecified) [NITRENDIPINE]	Not Active
C#C[C@]1(OC(C)=O)CC[C@H]2[C@@H]3CCC4=CC(=O)CC[C@@H]4[C@H]3CC[C@@]21C [NORETHINDRONE ACETATE]	Not Active
COc1ccc2[nH]c([S+]([O-])Cc3ncc(C)c(OC)c3C)nc2c1 (stereo unspecified) [OMEPRAZOLE]	Not Active
Cc1nccn1CC1CCc2c(c3ccccc3n2C)C1=O (stereo unspecified) [ONDANSETRON]	Not Active

Biological target: Sodium-dependent noradrenaline transporter (Homo sapiens, UniProt P23975)
Experiment: DRUGMATRIX: Norepinephrine Transporter radioligand binding (ligand: [125I] RTI-55)
Type: cell membranes, MDCK, Membrane
Conditions: Not Active = under 50% inhibition at 10 µM; read-out: IC50

Chain of Sodium-dependent noradrenaline transporter (P23975 whole entry): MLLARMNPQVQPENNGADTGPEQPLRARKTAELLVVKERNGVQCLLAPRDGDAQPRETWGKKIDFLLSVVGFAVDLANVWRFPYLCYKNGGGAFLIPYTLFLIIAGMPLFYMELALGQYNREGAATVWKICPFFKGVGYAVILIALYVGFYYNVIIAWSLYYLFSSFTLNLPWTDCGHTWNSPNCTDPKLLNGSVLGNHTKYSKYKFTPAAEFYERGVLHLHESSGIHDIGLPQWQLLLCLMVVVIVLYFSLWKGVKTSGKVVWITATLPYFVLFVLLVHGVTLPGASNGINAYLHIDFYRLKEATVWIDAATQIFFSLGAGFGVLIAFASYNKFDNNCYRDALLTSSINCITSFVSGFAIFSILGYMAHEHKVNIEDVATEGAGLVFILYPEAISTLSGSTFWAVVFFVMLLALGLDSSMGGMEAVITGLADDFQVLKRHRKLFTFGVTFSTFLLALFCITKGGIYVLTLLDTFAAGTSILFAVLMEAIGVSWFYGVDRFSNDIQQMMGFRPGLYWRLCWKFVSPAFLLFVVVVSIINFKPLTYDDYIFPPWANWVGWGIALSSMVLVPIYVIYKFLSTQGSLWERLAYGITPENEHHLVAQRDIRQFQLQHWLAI

Compound	IC50 [µM]
Oc1ccc(OCc2ccccc2)cc1 [MONOBENZONE]	3.89

Same assay, conditions: Not Active = under 50% inhibition at 10 µM; read-out: Ki

Compound	Ki [µM]
Oc1ccc(OCc2ccccc2)cc1 [MONOBENZONE]	3.85

Same assay, conditions: mdck; Not Active = under 50% inhibition at 10 µM

Compound	IC50
CC(C)(Oc1ccc(C2CCCc3ccccc32)cc1)C(=O)O (stereo unspecified) [NAFENOPIN]	Not Active
CC(C)[C@H]1CC[C@H](C(=O)N[C@H](Cc2ccccc2)C(=O)O)CC1 [NATEGLINIDE]	Not Active
CCN[C@@H]1C[C@H](N)[C@@H](O[C@H]2OC(CN)=CC[C@H]2N)[C@H](O)[C@H]1O[C@H]1OC[C@](C)(O)[C@H](NC)[C@H]1O [NETILMICIN]	Not Active
COC(=O)C1=C(C)NC(C)=C(C(=O)OCC(C)C)C1c1ccccc1[N+](=O)[O-] (stereo unspecified) [NISOLDIPINE]	Not Active
CCOC(=O)C1=C(C)NC(C)=C(C(=O)OC)C1c1cccc([N+](=O)[O-])c1 (stereo unspecified) [NITRENDIPINE]	Not Active
C#C[C@]1(OC(C)=O)CC[C@H]2[C@@H]3CCC4=CC(=O)CC[C@@H]4[C@H]3CC[C@@]21C [NORETHINDRONE ACETATE]	Not Active
COc1ccc2[nH]c([S+]([O-])Cc3ncc(C)c(OC)c3C)nc2c1 (stereo unspecified) [OMEPRAZOLE]	Not Active
Cc1nccn1CC1CCc2c(c3ccccc3n2C)C1=O (stereo unspecified) [ONDANSETRON]	Not Active

Test system: not listed separately
Experiment: DRUGMATRIX: Glutamate, NMDA, Agonism radioligand binding (ligand: [3H] CGP-39653)
Type: cell membranes, Rattus norvegicus, Wistar, Cerebral cortex, Membrane
Conditions: Not Active = under 50% inhibition at 10 µM

Compound	IC50	Ki
Oc1ccc(OCc2ccccc2)cc1 [MONOBENZONE]	Not Active	Not Active
CC(C)(Oc1ccc(C2CCCc3ccccc32)cc1)C(=O)O (stereo unspecified) [NAFENOPIN]	Not Active	Not Active
CC(C)[C@H]1CC[C@H](C(=O)N[C@H](Cc2ccccc2)C(=O)O)CC1 [NATEGLINIDE]	Not Active	Not Active
CCN[C@@H]1C[C@H](N)[C@@H](O[C@H]2OC(CN)=CC[C@H]2N)[C@H](O)[C@H]1O[C@H]1OC[C@](C)(O)[C@H](NC)[C@H]1O [NETILMICIN]	Not Active	Not Active
COC(=O)C1=C(C)NC(C)=C(C(=O)OCC(C)C)C1c1ccccc1[N+](=O)[O-] (stereo unspecified) [NISOLDIPINE]	Not Active	Not Active
CCOC(=O)C1=C(C)NC(C)=C(C(=O)OC)C1c1cccc([N+](=O)[O-])c1 (stereo unspecified) [NITRENDIPINE]	Not Active	Not Active
C#C[C@]1(OC(C)=O)CC[C@H]2[C@@H]3CCC4=CC(=O)CC[C@@H]4[C@H]3CC[C@@]21C [NORETHINDRONE ACETATE]	Not Active	Not Active
COc1ccc2[nH]c([S+]([O-])Cc3ncc(C)c(OC)c3C)nc2c1 (stereo unspecified) [OMEPRAZOLE]	Not Active	Not Active
Cc1nccn1CC1CCc2c(c3ccccc3n2C)C1=O (stereo unspecified) [ONDANSETRON]	Not Active	Not Active

Test system: not listed separately
Experiment: DRUGMATRIX: GABAA, Muscimol, Central radioligand binding (ligand: [3H] Muscimol)
Type: cell membranes, Rattus norvegicus, Wistar, Brain, Membrane
Conditions: Not Active = under 50% inhibition at 10 µM

Compound	IC50	Ki
Oc1ccc(OCc2ccccc2)cc1 [MONOBENZONE]	Not Active	Not Active
CC(C)(Oc1ccc(C2CCCc3ccccc32)cc1)C(=O)O (stereo unspecified) [NAFENOPIN]	Not Active	Not Active
CC(C)[C@H]1CC[C@H](C(=O)N[C@H](Cc2ccccc2)C(=O)O)CC1 [NATEGLINIDE]	Not Active	Not Active
CCN[C@@H]1C[C@H](N)[C@@H](O[C@H]2OC(CN)=CC[C@H]2N)[C@H](O)[C@H]1O[C@H]1OC[C@](C)(O)[C@H](NC)[C@H]1O [NETILMICIN]	Not Active	Not Active
COC(=O)C1=C(C)NC(C)=C(C(=O)OCC(C)C)C1c1ccccc1[N+](=O)[O-] (stereo unspecified) [NISOLDIPINE]	Not Active	Not Active
CCOC(=O)C1=C(C)NC(C)=C(C(=O)OC)C1c1cccc([N+](=O)[O-])c1 (stereo unspecified) [NITRENDIPINE]	Not Active	Not Active
C#C[C@]1(OC(C)=O)CC[C@H]2[C@@H]3CCC4=CC(=O)CC[C@@H]4[C@H]3CC[C@@]21C [NORETHINDRONE ACETATE]	Not Active	Not Active
COc1ccc2[nH]c([S+]([O-])Cc3ncc(C)c(OC)c3C)nc2c1 (stereo unspecified) [OMEPRAZOLE]	Not Active	Not Active
Cc1nccn1CC1CCc2c(c3ccccc3n2C)C1=O (stereo unspecified) [ONDANSETRON]	Not Active	Not Active

Biological target: Acetylcholinesterase (Homo sapiens, UniProt P22303)
Experiment: DRUGMATRIX: Acetylcholinesterase enzyme inhibition (substrate: acetylthiocholine)
Type: cell-based, HEK293
Conditions: hek293; Not Active = under 50% inhibition at 10 µM

Chain of Acetylcholinesterase (P22303 whole entry): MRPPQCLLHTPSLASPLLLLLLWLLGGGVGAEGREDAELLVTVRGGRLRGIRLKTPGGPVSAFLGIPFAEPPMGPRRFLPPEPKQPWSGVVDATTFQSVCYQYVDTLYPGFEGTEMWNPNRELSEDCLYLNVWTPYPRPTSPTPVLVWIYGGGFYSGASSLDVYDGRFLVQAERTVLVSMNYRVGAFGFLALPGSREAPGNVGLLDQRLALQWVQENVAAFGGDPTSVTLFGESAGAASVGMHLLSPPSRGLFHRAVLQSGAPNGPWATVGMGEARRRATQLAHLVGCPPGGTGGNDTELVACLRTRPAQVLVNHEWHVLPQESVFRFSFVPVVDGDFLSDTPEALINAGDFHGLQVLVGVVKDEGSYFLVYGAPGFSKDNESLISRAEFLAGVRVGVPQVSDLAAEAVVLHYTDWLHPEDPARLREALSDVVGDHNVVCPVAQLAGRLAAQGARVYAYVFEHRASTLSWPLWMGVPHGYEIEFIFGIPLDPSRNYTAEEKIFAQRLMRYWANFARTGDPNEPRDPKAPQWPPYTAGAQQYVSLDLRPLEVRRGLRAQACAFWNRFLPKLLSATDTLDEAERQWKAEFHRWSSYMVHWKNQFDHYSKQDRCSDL

Compound	IC50
Oc1ccc(OCc2ccccc2)cc1 [MONOBENZONE]	Not Active
CC(C)(Oc1ccc(C2CCCc3ccccc32)cc1)C(=O)O (stereo unspecified) [NAFENOPIN]	Not Active
CC(C)[C@H]1CC[C@H](C(=O)N[C@H](Cc2ccccc2)C(=O)O)CC1 [NATEGLINIDE]	Not Active
CCN[C@@H]1C[C@H](N)[C@@H](O[C@H]2OC(CN)=CC[C@H]2N)[C@H](O)[C@H]1O[C@H]1OC[C@](C)(O)[C@H](NC)[C@H]1O [NETILMICIN]	Not Active
COC(=O)C1=C(C)NC(C)=C(C(=O)OCC(C)C)C1c1ccccc1[N+](=O)[O-] (stereo unspecified) [NISOLDIPINE]	Not Active
CCOC(=O)C1=C(C)NC(C)=C(C(=O)OC)C1c1cccc([N+](=O)[O-])c1 (stereo unspecified) [NITRENDIPINE]	Not Active
C#C[C@]1(OC(C)=O)CC[C@H]2[C@@H]3CCC4=CC(=O)CC[C@@H]4[C@H]3CC[C@@]21C [NORETHINDRONE ACETATE]	Not Active
COc1ccc2[nH]c([S+]([O-])Cc3ncc(C)c(OC)c3C)nc2c1 (stereo unspecified) [OMEPRAZOLE]	Not Active
Cc1nccn1CC1CCc2c(c3ccccc3n2C)C1=O (stereo unspecified) [ONDANSETRON]	Not Active

Biological target: T1, Alpha-2C adrenergic receptor (Homo sapiens, UniProt P18825)
T1 sequence (P18825 whole entry): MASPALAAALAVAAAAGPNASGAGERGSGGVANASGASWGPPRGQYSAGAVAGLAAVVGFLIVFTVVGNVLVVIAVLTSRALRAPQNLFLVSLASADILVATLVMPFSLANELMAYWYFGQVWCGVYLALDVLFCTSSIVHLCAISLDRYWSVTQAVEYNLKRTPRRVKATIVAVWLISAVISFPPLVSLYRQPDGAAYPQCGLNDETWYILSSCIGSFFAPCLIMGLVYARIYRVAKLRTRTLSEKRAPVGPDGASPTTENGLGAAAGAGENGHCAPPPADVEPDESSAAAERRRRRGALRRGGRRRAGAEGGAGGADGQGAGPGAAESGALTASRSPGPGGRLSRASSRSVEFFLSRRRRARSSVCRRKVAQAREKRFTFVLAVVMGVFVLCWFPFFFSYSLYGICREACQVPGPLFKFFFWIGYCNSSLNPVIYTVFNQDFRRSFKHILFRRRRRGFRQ
Experiment: DRUGMATRIX: Adrenergic Alpha-2C radioligand binding (ligand: [3H] MK-912)
Type: cell membranes, Sf9, Membrane
Conditions: sf9

Compound	IC50
Oc1ccc(OCc2ccccc2)cc1 [MONOBENZONE]	Not Active
CC(C)(Oc1ccc(C2CCCc3ccccc32)cc1)C(=O)O (stereo unspecified) [NAFENOPIN]	Not Active
CC(C)[C@H]1CC[C@H](C(=O)N[C@H](Cc2ccccc2)C(=O)O)CC1 [NATEGLINIDE]	Not Active
CCN[C@@H]1C[C@H](N)[C@@H](O[C@H]2OC(CN)=CC[C@H]2N)[C@H](O)[C@H]1O[C@H]1OC[C@](C)(O)[C@H](NC)[C@H]1O [NETILMICIN]	Not Active
COC(=O)C1=C(C)NC(C)=C(C(=O)OCC(C)C)C1c1ccccc1[N+](=O)[O-] (stereo unspecified) [NISOLDIPINE]	Not Active
CCOC(=O)C1=C(C)NC(C)=C(C(=O)OC)C1c1cccc([N+](=O)[O-])c1 (stereo unspecified) [NITRENDIPINE]	Not Active
C#C[C@]1(OC(C)=O)CC[C@H]2[C@@H]3CCC4=CC(=O)CC[C@@H]4[C@H]3CC[C@@]21C [NORETHINDRONE ACETATE]	Not Active
COc1ccc2[nH]c([S+]([O-])Cc3ncc(C)c(OC)c3C)nc2c1 (stereo unspecified) [OMEPRAZOLE]	Not Active
Cc1nccn1CC1CCc2c(c3ccccc3n2C)C1=O (stereo unspecified) [ONDANSETRON]	Not Active
